Assay results from patent US11266147B2, “Fungicidal oxadiazoles” (Bayer Aktiengesellschaft, priority 2017, dated 2022).

experiment: LogP by HPLC on reversed phase columns (EEC directive 79/831 Annex V.A8); format: physicochemical; details: method [a]: LC-UV, acidic range, 0.1% formic acid in water and acetonitrile, linear gradient 10% to 95% acetonitrile
Procedure: [table] If more than one LogP value is available within the same method, all the values are given and separated by “+”. Calibration was done with straight-chain alkan2-ones (with 3 to 16 carbon atoms) with known LogP values (measurement of LogP values using retention times with linear interpolation between successive alkanones). Lambda-max-values were determined using UV-spectra from 200 nm to 400 nm and the peak values of the chromatographic signals.

SMILES	LogP
COc1cc(Nc2ncc(-c3noc(C(F)(F)F)n3)cn2)ccc1C [Compound I-52]	4.30^[a]
COc1ccc(Nc2ncc(-c3noc(C(F)(F)F)n3)cn2)cc1 [Compound I-59]	3.57^[a]
FC(F)(Cl)c1nc(-c2cnc(NC3CC3)nc2)no1 [Compound I-27]	2.76^[a]
FC(F)(Cl)c1nc(-c2cnc(Nc3ccc4ncccc4c3)nc2)no1 [Compound I-90]	2.13^[a]
FC(F)(F)c1nc(-c2cnc(Nc3ccc(Cl)cc3)nc2)no1 [Compound I-62]	4.34^[a]
FC(F)(Cl)c1nc(-c2cnc(NC3(c4ccccn4)CCC3)nc2)no1 [Compound I-24]	2.13^[a]
CN(c1ncc(-c2noc(C(F)(F)Cl)n2)cn1)C1CCCC1 [Compound I-12]	5.42^[a]
FC(F)(Cl)c1nc(-c2cnc(Nc3cccc(Cl)c3)nc2)no1 [Compound I-79]	4.56^[a]
FC(F)(F)c1nc(-c2cnc(Nc3ccc4ncccc4c3)nc2)no1 [Compound I-87]	1.98^[a]
Fc1ccc(Nc2ncc(-c3noc(C(F)(F)Cl)n3)cn2)c(F)c1 [Compound I-75]	3.92^[a]
Fc1cccc(Nc2ncc(-c3noc(C(F)(F)Cl)n3)cn2)c1 [Compound I-76]	4.18^[a]
COc1cccc(Nc2ncc(-c3noc(C(F)(F)Cl)n3)cn2)c1 [Compound I-80]	3.96^[a]
FC(F)(F)Oc1ccccc1Nc1ccc(-c2noc(C(F)(F)F)n2)cc1 [Compound I-39]	5.11^[a]
FC(F)(Cl)c1nc(-c2cnc(NC3CCOC3)nc2)no1 (stereo not shown) [Compound I-11]	2.55^[a]
N#CCc1ccc(Nc2ncc(-c3noc(C(F)(F)F)n3)cn2)cc1 [Compound I-48]	3.27^[a]
COc1ccc(Nc2ncc(-c3noc(C(F)(F)Cl)n3)cn2)cc1 [Compound I-66]	3.79^[a]
Fc1ccccc1Nc1ncc(-c2noc(C(F)(F)Cl)n2)cn1 [Compound I-41]	3.94^[a]
FC(F)(F)c1nc(-c2cnc(Nc3ccc(S(F)(F)(F)(F)F)cc3)nc2)no1 [Compound I-55]	4.80^[a]
FC(F)(Cl)c1nc(-c2cnc(Nc3cccc4c3CCC4)nc2)no1 [Compound I-73]	4.69^[a]
FC(F)(Cl)c1nc(-c2cnc(NC3=NCCS3)nc2)no1 [Compound I-33]	1.26^[a]
FC(F)(Cl)c1nc(-c2cnc(Nc3ccon3)nc2)no1 [Compound I-64]	2.71^[a]

SMILES	LogP
Cc1cccc(Nc2ncc(-c3noc(C(F)(F)Cl)n3)cn2)c1 [Compound I-68]	4.34^[a]
FC(F)(F)c1nc(-c2ccc(Nc3ccccc3)cc2)no1 [Compound I-37]	4.56^[a]
CC(=O)Nc1cccc(Nc2ncc(-c3noc(C(F)(F)Cl)n3)cn2)c1 [Compound I-74]	2.75^[a]
FC(F)(Cl)c1nc(-c2cnc(Nc3ccc4c(c3)OCO4)nc2)no1 [Compound I-70]	3.72^[a]
COc1cc(Nc2ncc(-c3noc(C(F)(F)Cl)n3)cn2)ccc1C [Compound I-81]	4.51^[a]
Cc1ccnc(Nc2ccc(-c3noc(C(F)(F)F)n3)cc2)n1 [Compound I-06]	3.83^[a]
COc1ccccc1Nc1ncc(-c2noc(C(F)(F)Cl)n2)cn1 [Compound I-78]	4.41^[a]
FC(F)(Cl)c1nc(-c2cnc(NC3(c4ccccc4)CC3)nc2)no1 [Compound I-29]	3.94^[a]
FC(F)Oc1ccc(Nc2ncc(-c3noc(C(F)(F)Cl)n3)cn2)cc1 [Compound I-69]	4.11^[a]
Cc1cccc(Nc2ncc(-c3noc(C(F)(F)F)n3)cn2)c1 [Compound I-56]	4.13^[a]
COc1ccccc1Nc1ncc(-c2noc(C(F)(F)F)n2)cn1 [Compound I-54]	4.18^[a]
FC(F)(F)c1nc(-c2cnc(NC3CCOCC3)nc2)no1 [Compound I-16]	2.57^[a]
FC(F)Oc1ccc(Nc2ncc(-c3noc(C(F)(F)F)n3)cn2)cc1 [Compound I-43]	3.92^[a]
Fc1ccc(Nc2ncc(-c3noc(C(F)(F)Cl)n3)cn2)cc1 [Compound I-72]	3.99^[a]
FC(F)(Cl)c1nc(-c2cnc(Nc3ccsc3)nc2)no1 [Compound I-65]	3.92^[a]
FC(F)(F)c1nc(-c2cnc(Nc3ccon3)nc2)no1 [Compound I-57]	2.50^[a]
FC(F)(F)c1nc(-c2ccc(Nc3ccc(Cl)cc3)cc2)no1 [Compound I-38]	5.00^[a]
FC(F)(F)c1nc(-c2cnc(Nc3nc4c(s3)CCC4)nc2)no1 [Compound I-86]	3.81^[a]
FC(F)(F)c1cccc(Nc2ncc(-c3noc(C(F)(F)F)n3)cn2)c1 [Compound I-53]	4.46^[a]
FC(F)(F)c1nc(-c2cnc(NC3CC3)nc2)no1 [Compound I-31]	2.57^[a]
FC(F)(Cl)c1nc(-c2cnc(NC3CC3C(F)(F)F)nc2)no1 (stereo not shown) [Compound I-09]	3.65^[a]

SMILES	LogP
FC(F)(F)c1nc(-c2cnc(Nc3ccccc3Cl)nc2)no1 [Compound I-47]	4.20^[a]
N#Cc1cccc(Nc2ncc(-c3noc(C(F)(F)Cl)n3)cn2)c1 [Compound I-82]	3.72^[a]
Fc1ccc(Nc2ncc(-c3noc(C(F)(F)F)n3)cn2)cc1 [Compound I-63]	3.79^[a]
FC(F)(Cl)c1nc(-c2cnc(Nc3ccc(Cl)cc3)nc2)no1 [Compound I-67]	4.56^[a]
FC(F)(F)c1nc(-c2cnc(NC3(c4ccccn4)CCC3)nc2)no1 [Compound I-23]	1.96^[a]
FC(F)(F)c1nc(-c2cnc(NC3CC3C(F)(F)F)nc2)no1 (stereo not shown) [Compound I-21]	3.46^[a]
FC(F)(F)c1nc(-c2cnc(NC3CCOC3)nc2)no1 (stereo not shown) [Compound I-10]	2.35^[a]
FC(F)(F)c1cccc(Nc2ccc(-c3noc(C(F)(F)F)n3)cc2)c1 [Compound I-36]	5.08^[a]
O=S1(=O)CCC(Nc2ncc(-c3noc(C(F)(F)F)n3)cn2)C1 (stereo not shown) [Compound I-22]	2.15^[a]
FC(F)(F)c1nc(-c2cnc(NC3CCCC3)nc2)no1 [Compound I-08]	3.83^[a]
FC1(F)CC(Nc2ncc(-c3noc(C(F)(F)Cl)n3)cn2)C1 [Compound I-18]	3.48^[a]
FC(F)(F)c1nc(-c2cnc(Nc3ccsc3)nc2)no1 [Compound I-58]	3.70^[a]
Cc1cccc(Nc2ccc(-c3noc(C(F)(F)F)n3)cc2)c1 [Compound I-35]	4.93^[a]
CC(=O)Nc1cccc(Nc2ncc(-c3noc(C(F)(F)F)n3)cn2)c1 [Compound I-50]	2.59^[a]
FC(F)(F)c1nc(-c2cnc(NC3Cc4ccccc4C3)nc2)no1 [Compound I-26]	4.27^[a]
FC(F)(Cl)c1nc(-c2cnc(Nc3ccc(S(F)(F)(F)(F)F)cc3)nc2)no1 [Compound I-83]	5.00^[a]
FC(F)(Cl)c1nc(-c2cnc(NC3Cc4ccccc4C3)nc2)no1 [Compound I-19]	4.49^[a]
CC1(Nc2ncc(-c3noc(C(F)(F)Cl)n3)cn2)CC1 [Compound I-14]	3.25^[a]
N#CCc1ccc(Nc2ncc(-c3noc(C(F)(F)Cl)n3)cn2)cc1 [Compound I-84]	3.46^[a]
FC(F)(Cl)c1nc(-c2cnc(Nc3ccccc3)nc2)no1 [Compound I-71]	3.96^[a]
Fc1cccc(Nc2ncc(-c3noc(C(F)(F)F)n3)cn2)c1 [Compound I-44]	3.94^[a]

SMILES	LogP
FC(F)(Cl)c1nc(-c2cnc(Nc3nc4c(s3)CCC4)nc2)no1 [Compound I-89]	4.03^[a]
N#Cc1cccc(Nc2ncc(-c3noc(C(F)(F)F)n3)cn2)c1 [Compound I-51]	3.52^[a]
FC(F)(F)c1nc(-c2cnc(Nc3ccc4c(c3)OCO4)nc2)no1 [Compound I-49]	3.50^[a]
O=S1(=O)CCC(Nc2ncc(-c3noc(C(F)(F)Cl)n3)cn2)C1 (stereo not shown) [Compound I-30]	2.32^[a]
FC(F)(F)c1cccc(Nc2ncc(-c3noc(C(F)(F)Cl)n3)cn2)c1 [Compound I-85]	4.69^[a]
COc1cccc(Nc2ncc(-c3noc(C(F)(F)F)n3)cn2)c1 [Compound I-45]	3.76^[a]
Cn1ccnc1Nc1ncc(-c2noc(C(F)(F)F)n2)cn1 [Compound I-88]	1.08^[a]
CC(=O)N1CCC(Nc2ncc(-c3noc(C(F)(F)F)n3)cn2)CC1 [Compound I-13]	2.17^[a]
FC(F)(F)c1nc(-c2cnc(Nc3cccc(Cl)c3)nc2)no1 [Compound I-46]	4.34^[a]
Fc1ccc(Nc2ncc(-c3noc(C(F)(F)F)n3)cn2)c(F)c1 [Compound I-42]	3.70^[a]
FC1(F)CC(Nc2ncc(-c3noc(C(F)(F)F)n3)cn2)C1 [Compound I-32]	3.29^[a]
Cc1ccnc(Nc2ccc(-c3noc(C(F)(F)Cl)n3)cc2)n1 [Compound I-40]	2.98^[a]
FC(F)(Cl)c1nc(-c2cnc(NC3CCCC3)nc2)no1 [Compound I-28]	4.08^[a]
FC(F)(F)c1nc(-c2cnc(NC3=NCCS3)nc2)no1 [Compound I-34]	1.08^[a]
FC(F)(Cl)c1nc(-c2cnc(NC3CCOCC3)nc2)no1 [Compound I-15]	2.76^[a]
FC(F)(F)c1nc(-c2cnc(NC3(c4ccccc4)CC3)nc2)no1 [Compound I-17]	3.74^[a]
FC(F)(F)c1nc(-c2cnc(Nc3ccccc3)nc2)no1 [Compound I-61]	3.74^[a]
CC1(Nc2ncc(-c3noc(C(F)(F)F)n3)cn2)CC1 [Compound I-25]	3.04^[a]

same assay, conditions: reversed phase HPLC column; method [a]: LC-UV, acidic range, 0.1% formic acid in water and acetonitrile, linear gradient 10% to 95% acetonitrile

SMILES	chromatographic logP
CC(=O)N(c1ncc(-c2noc(C(F)(F)F)n2)cn1)c1ccccc1F [Compound I-07, N-(2-fluorophenyl)-N-{5-[5-(trifluoromethyl)-1,2,4-oxadiazol-3-yl]pyrimidin-2-yl}acetamide]	3.23
